Data as given in ChEMBL document CHEMBL5120890, “Untapped Pharmaceutical Potential of 4,5,4'-Trihydroxy-3,3'-dimethoxybibenzyl for Regulating Obesity: A Cell-Based Study with a Focus on Terminal Differentiation in Adipogenesis” (J Nat Prod, 2022).
Activity calls are given as the source filed them. The rule behind the calls is not given here.

Key:
[1] = target: T1, 5'-AMP-activated protein kinase (Mus musculus) (UniProt Q5EG47+Q8BRK8+Q6PAM0+O54950+Q91WG5+Q9R078+Q8BGM7); assay: Activation of AMPK in mouse 3T3-L1 cells assessed as increase in AMPKbeta phosphorylation in early differentiation at 0.5 to 5 uM after 48 hrs by Western blot analysis; format: cell-based; settings: filed as activator, dose 0.5-5 µM
[2] = target: T1, 5'-AMP-activated protein kinase (Mus musculus); assay: Activation of AMPK in mouse 3T3-L1 cells assessed as increase in AMPKalpha phosphorylation in early differentiation at 0.5 to 5 uM after 48 hrs by Western blot analysis; format: cell-based; settings: filed as activator, dose 0.5-5 µM
3T3-L1 [3] = assay: Inhibition of AKT/GSK3beta signalling pathway in mouse 3T3-L1 cells assessed as reduction in GSK3beta phosphorylation in early differentiation at 0.5 to 5 uM after 48 hrs by Western blot analysis; format: cell-based; settings: dose 0.5-5 µM
[4] = (§1) Cytotoxicity against mouse 3T3-L1 pre-adipocytes assessed as reduction in cell viability after 48 hrs by MTT assay; format: toxicity, cell-based; settings: 3T3-L1 pre-adipocytes
3T3-L1 [5] = assay: as §1; format: toxicity, cell-based; settings: 3t3-l1, 48 h, time 48 hrs
[6] = (§2) Cytotoxicity against mouse 3T3-L1 adipocytes assessed as reduction in cell viability after 48 hrs by MTT assay; format: toxicity, cell-based; settings: 3T3-L1 adipocytes
3T3-L1 [7] = assay: as §2; format: toxicity, cell-based; settings: 3t3-l1, 48 h, time 48 hrs
[8] = Cytotoxicity against human PCS-210-010 pre-adipocytes assessed as reduction in cell viability after 48 hrs by MTT assay; format: toxicity, cell-based
[9] = Cytotoxicity against human PCS-210-010 adipocytes assessed as reduction in cell viability after 48 hrs by MTT assay; format: toxicity, cell-based
3T3-L1 [10] = assay: Cytotoxicity against mouse 3T3-L1 pre-adipocytes assessed as reduction in cell viability at >=10 uM after 48 hrs by MTT assay; format: toxicity, cell-based; settings: 3t3-l1, 48 h
[11] = Cytotoxicity against human PCS-210-010 pre-adipocytes assessed as reduction in cell viability at >=10 uM after 48 hrs by MTT assay; format: toxicity, cell-based; settings: pcs-210-010, 48 h
3T3-L1 [12] = assay: Cytotoxicity against mouse 3T3-L1 pre-adipocytes assessed as reduction in cell viability at >=25 uM after 48 hrs by MTT assay; format: toxicity, cell-based; settings: 3t3-l1, 48 h
[13] = Cytotoxicity against human PCS-210-010 pre-adipocytes assessed as reduction in cell viability at >=25 uM after 48 hrs by MTT assay; format: toxicity, cell-based; settings: pcs-210-010, 48 h
3T3-L1 [14] = assay: Induction of apoptosis in mouse 3T3-L1 pre-adipocytes at 0.5 to 5 uM after 48 hrs by PI/Hoechst 33342 staining based fluorescence microscopic analysis; format: functional, cell-based; settings: dose 0.5-5 µM
3T3-L1 [15] = assay: Induction of apoptosis in mouse 3T3-L1 adipocytes at 0.5 to 5 uM after 48 hrs by PI/Hoechst 33342 staining based fluorescence microscopic analysis; format: functional, cell-based; settings: dose 0.5-5 µM
PCS-210-010 [16] = assay: Induction of apoptosis in human PCS-210-010 pre-adipocytes at 0.5 to 5 uM after 48 hrs by PI/Hoechst 33342 staining based fluorescence microscopic analysis; format: functional, cell-based; settings: dose 0.5-5 µM
PCS-210-010 [17] = assay: Induction of apoptosis in human PCS-210-010 adipocytes at 0.5 to 5 uM after 48 hrs by PI/Hoechst 33342 staining based fluorescence microscopic analysis; format: functional, cell-based; settings: dose 0.5-5 µM
3T3-L1 [18] = assay: Inhibition of preadipocyte differentiation in mouse 3T3-L1 cells assessed as reduction in lipid droplet accumulation in early differentiation at 0.5 to 5 uM incubated for 8 days by Oil Red O staining based inverted optical microscopic analysis; format: functional, cell-based; settings: dose 0.5-5 µM, time 8.0 day
3T3-L1 [19] = assay: Inhibition of preadipocyte differentiation in mouse 3T3-L1 cells assessed as reduction in lipid droplet accumulation in maturation at 0.5 to 5 uM incubated for 8 days by Oil Red O staining based inverted optical microscopic analysis; format: functional, cell-based; settings: dose 0.5-5 µM, time 8.0 day
PCS-210-010 [20] = assay: Inhibition of preadipocyte differentiation in human PCS-210-010 cells assessed as reduction in lipid droplet accumulation in early differentiation at 0.5 to 5 uM incubated for 8 days by Oil Red O staining based inverted optical microscopic analysis; format: functional, cell-based; settings: dose 0.5-5 µM, time 8.0 day
PCS-210-010 [21] = assay: Inhibition of preadipocyte differentiation in human PCS-210-010 cells assessed as reduction in lipid droplet accumulation in maturation at 0.5 to 5 uM incubated for 8 days by Oil Red O staining based inverted optical microscopic analysis; format: functional, cell-based; settings: dose 0.5-5 µM, time 8.0 day
3T3-L1 [22] = assay: Inhibition of preadipocyte differentiation in mouse 3T3-L1 cells assessed as reduction in triglyceride accumulation in early differentiation at 0.5 to 5 uM incubated for 8 days by colorimetric assay; format: functional, cell-based; settings: dose 0.5-5 µM, time 8.0 day, DDE = dose-dependent effect
3T3-L1 [23] = assay: Inhibition of preadipocyte differentiation in mouse 3T3-L1 cells assessed as reduction in triglyceride accumulation in maturation at 0.5 to 5 uM incubated for 8 days by colorimetric assay; format: functional, cell-based; settings: dose 0.5-5 µM, time 8.0 day, DDE = dose-dependent effect
PCS-210-010 [24] = assay: Inhibition of preadipocyte differentiation in human PCS-210-010 cells assessed as reduction in triglyceride accumulation in early differentiation at 0.5 to 5 uM incubated for 8 days by colorimetric assay; format: functional, cell-based; settings: dose 0.5-5 µM, time 8.0 day, DDE = dose-dependent effect
PCS-210-010 [25] = assay: Inhibition of preadipocyte differentiation in human PCS-210-010 cells assessed as reduction in triglyceride accumulation in maturation at 0.5 to 5 uM incubated for 8 days by colorimetric assay; format: functional, cell-based; settings: dose 0.5-5 µM, time 8.0 day, DDE = dose-dependent effect
3T3-L1 [26] = assay: Inhibition of preadipocyte differentiation in mouse 3T3-L1 cells assessed as increase in glycerol release in early differentiation at 0.5 to 5 uM incubated for 8 days by colorimetric assay; format: functional, cell-based; settings: dose 0.5-5 µM, time 8.0 day, DDE = dose-dependent effect
3T3-L1 [27] = assay: Inhibition of preadipocyte differentiation in mouse 3T3-L1 cells assessed as increase in glycerol release in maturation at 0.5 to 5 uM incubated for 8 days by colorimetric assay; format: functional, cell-based; settings: dose 0.5-5 µM, time 8.0 day, DDE = dose-dependent effect
PCS-210-010 [28] = assay: Inhibition of preadipocyte differentiation in human PCS-210-010 cells assessed as increase in glycerol release in early differentiation at 0.5 to 5 uM incubated for 8 days by colorimetric assay; format: functional, cell-based; settings: dose 0.5-5 µM, time 8.0 day, DDE = dose-dependent effect
PCS-210-010 [29] = assay: Inhibition of preadipocyte differentiation in human PCS-210-010 cells assessed as increase in glycerol release in maturation at 0.5 to 5 uM incubated for 8 days by colorimetric assay; format: functional, cell-based; settings: dose 0.5-5 µM, time 8.0 day, DDE = dose-dependent effect
3T3-L1 [30] = assay: Down regulation of FAS protein expression in mouse 3T3-L1 cells in early differentiation at 0.5 to 5 uM after 8 days by western blot analysis; format: functional, cell-based; settings: dose 0.5-5 µM, time 8.0 day
3T3-L1 [31] = assay: Antiproliferative activity against mouse 3T3-L1 cells assessed as reduction in cell proliferation at 0.5 to 5 uM after 24 to 72 hrs by crystal violet staining based assay; format: functional; settings: dose 0.5-5 µM, time 24-72 hrs
3T3-L1 [32] = assay: Down regulation of Cyclin D1 protein expression in mouse 3T3-L1 cells at 0.5 to 5 uM after 18 hrs by western blot analysis; format: functional, cell-based; settings: dose 0.5-5 µM
3T3-L1 [33] = assay: Effect on Cyclin D3 protein expression in mouse 3T3-L1 cells at 0.5 to 5 uM after 18 hrs by western blot analysis; format: functional, cell-based; settings: dose 0.5-5 µM
3T3-L1 [34] = assay: Down regulation of CDK6 protein expression in mouse 3T3-L1 cells at 0.5 to 5 uM after 18 hrs by western blot analysis; format: functional, cell-based; settings: dose 0.5-5 µM

Structure (SMILES): COc1cc(CCc2cc(O)c(O)c(OC)c2)ccc1O
- Activity [1]: Active
- Activity [2]: Active
- inhibition (3T3-L1 [3]): Active
- IC50 at 48 h [4]: 35.5 µM
- Activity (3T3-L1 [5]): Toxic
- IC50 at 48 h [6]: 72.4 µM
- Activity (3T3-L1 [7]): Toxic
- IC50 at 48 h ([8]; PCS-210-010 pre-adipocytes): 34.6 µM
- Activity ([8]; pcs-210-010, 48 h, time 48 hrs): Toxic
- IC50 at 48 h ([9]; PCS-210-010 adipocytes): 71.9 µM
- Activity ([9]; pcs-210-010, 48 h, time 48 hrs): Toxic
- Activity (3T3-L1 [10]): Toxic
- Activity [11]: Toxic
- Activity (3T3-L1 [12]): Toxic
- Activity [13]: Toxic
- Activity (3T3-L1 [14]): Non-Toxic
- Activity (3T3-L1 [15]): Non-Toxic
- Activity (PCS-210-010 [16]): Non-Toxic
- Activity (PCS-210-010 [17]): Non-Toxic
- inhibition (3T3-L1 [18]): Active
- inhibition (3T3-L1 [19]): Active
- inhibition (PCS-210-010 [20]): Active
- inhibition (PCS-210-010 [21]): Active
- inhibition (3T3-L1 [22]): Dde
- inhibition (3T3-L1 [23]): Dde
- inhibition (PCS-210-010 [24]): Dde
- inhibition (PCS-210-010 [25]): Dde
- inhibition (3T3-L1 [26]): Dde
- inhibition (3T3-L1 [27]): Dde
- inhibition (PCS-210-010 [28]): Dde
- inhibition (PCS-210-010 [29]): Dde
- Activity (3T3-L1 [30]): Active
- Activity (3T3-L1 [31]): Active
- Activity (3T3-L1 [32]): Active
- Activity (3T3-L1 [33]): Active
- Activity (3T3-L1 [34]): Active
